Measurements from US8138196B2, “Antifungal wallboards and building materials and methods for the production thereof” (Syngenta Crop Protection, Inc., priority 2005, dated 2012).

Legend:
Format in all cases: cell-based
[1] = tested on: Stachybotrys chartarum (DSM 2144); test: Example 4 liquid culture assay on 24 and 48 well plates, 3 way mixtures; details: test 015-2005, S. chartarum
Procedure: […] Spore suspensions were produced for each fungus. Spore concentrations of approx. 100,000 spores/ml were used.
(§1) Test method used: liquid culture assay on 24 and 48 well plates respectively.
(§2) For testing of the 3 way mixtures each of the formulated fungicide (100 ul) was filled into the 24 and 48 well plates respectively. Afterwards 700 ul of 0.3% AE media was added to the plate. The spore suspension of the specific fungi was added to this media in advance containing approx. 100,000 spores/ml. For testing the solo compounds the equivalent of distilled water was added instead of the formulated fungicide volume of the mixing partners. The plates were then sealed and incubated at 24° C.
(§3) Dependent on the growth properties of each organisms, the evaluation was done after 3 to 6 days, when the surface of the check well was covered with mycelium. The evaluation was performed by assessing the growth of the fungi related to the check growth. The results are expressed as % activity relative to the check (values of 0-100% growth). Afterwards the results were converted in % growth inhibition.
(§4) For the mixtures of different fungicides the synergism was calculated based on the Colby equation, which is described above.

[2] = tested on: Aspergillus versicolor (DSM 1943); test: as above; details: test 006-2005, A. versicolor
From the text: For test 006-2005: Alternaria tenuissima (DSM 63360), Penicillium chrysogenum (DSM 895), Cladosporium cladosporoides (DSM62121), Aspergillus niger (DSM 63263), Aspergillus versicolor (DSM 1943) and Aureobasidium pullulans (ATCC 15233) were separately cultivated on PDA media to […] sporulation. Spore suspensions were produced for each fungus. Spore concentrations of approx. 100,000 spores/ml were used.
as §1, §2, §3, §4

[3] = tested on: Penicillium chrysogenum (DSM 895); test: Example 3 liquid culture assay on 24 well plates, solo and 2-way mixtures; details: test 006-2005
From the text: (§5) Alternaria tenuissima (DSM 63360), Penicillium chrysogenum (DSM 895), Stachybotrys chartarum (DSM2144), Aspergillus niger (DSM 63263), Aspergillus versicolor (DSM 1943) and Aureobasidium pullulans (ATCC 15233) were separately cultivated on PDA media to […] sporulation. Spore suspensions were produced for each fungi. Spore concentrations of approx. 100.000 spores/ml were used.
(§6) Test method used: liquid culture assay on 24 well plates.
(§7) For solo (i.e. single) ai testing the formulated fungicide (100 ul) was filled into the 24 well plates and 100 ul distilled water was added. Afterwards 800 ul of 0.3% AE media was added to the plate. The spore suspension of the specific fungi was added to this media in advance containing approx. 100,000 spores/ml. The 24 well plates were sealed and incubated at 24° C.
(§8) Dependent on the growth properties of each organisms, the evaluation was done after 3 to 6 days, when the surface of the check well was covered with mycelium. The evaluation was performed by assessing the growth of the fungi related to the check growth. The results are expressed as % activity relative to the check (values of 0-100% growth). Afterwards the results were converted in % O growth inhibition.
(§9) For synergism testing of the 2-way mixtures 100 ul of each fungicide were filled into 24 well plates and 800 ul of 0.3% AE media containing the spore suspension was added. Different ratios of the 2 fungicide rates were tested at the same time.
(§10) For the mixtures of different fungicides the synergism was calculated based on the Colby equation, which is described below: […]
(§11) The fungicidal action to be expected, We, for a given combination of two fungicides can be calculated as follows (see COLBY, S. R. “Calculating synergistic and antagonistic response of herbicide combinations”. Weeds 15, pages 20-22; 1967): We=X+[Y×(100−X)/100] wherein: • X=% activity in the case of treatment with the compound of formula I at rate x, in comparison with untreated control (=0%). • Y=% activity in the case of treatment with a compound of formula II at rate y, in comparison with untreated control. • We=expected activity (% activity in comparison with untreated control) after treatment with the compound of formula I and a compound of formula II at a rate of x+y kg of active ingredient.
(§12) If the activity actually observed is greater than the expected value We (factor observed activity/expected activity >1.2), there is a synergistic effect.

[4] = tested on: Aureobasidium pullulans (ATCC 15233); test: as above
From the text: as §5, §6, §7, §8, §9, §10, §11, §12

[5] = tested on: Alternaria tenuissima (DSM 63360); test: as above
From the text: as §5, §6, §7, §8, §9, §10, §11, §12

[6] = tested on: Aspergillus niger (DSM 63263); test: as above; details: test 006-2005; rate (AZO) 0.05 mg ai/l
From the text: as §5, §6, §7, §8, §9, §10, §11, §12

[7] = tested on: Stachybotrys chartarum (DSM2144); test: as above; details: test 006-2005; rate (AZO) 0.8 mg ai/l
From the text: as §5, §6, §7, §8, §9, §10, §11, §12

[8] = tested on: Aspergillus versicolor (DSM 1943); test: as above; details: test 006-2005
From the text: as §5, §6, §7, §8, §9, §10, §11, §12

[9] = test 006-2005, rate (AZO) 0.05 mg ai/l
[10] = test 006-2005, rate (AZO) 0.2 mg ai/l
[11] = test 006-2005, rate (AZO) 0.8 mg ai/l

CO/C=C(/C(=O)OC)c1ccccc1Oc1cc(Oc2ccccc2C#N)ncn1 [Azoxystrobin]
inh % (AZO alone) ([1]; AZO 0.8 mg ai/l): 10%
inh % (AZO alone) ([1]; AZO 1.6 mg ai/l): 10%
inh % (AZO alone) ([1]; AZO 3.1 mg ai/l): 30%
inh % (AZO alone) ([2]; AZO 0.05 mg ai/l): 10%
inh % (AZO alone) ([2]; AZO 0.2 mg ai/l): 30%
inh % (AZO alone) ([2]; AZO 0.8 mg ai/l): 30%
inh % (AZO alone) ([2]; AZO 1.6 mg ai/l): 30%
inh % (AZO alone) ([2]; AZO 3.12 mg ai/l): 30%
inh % (AZO alone) ([2]; AZO 12.5 mg ai/l): 30%
inh % (AZO alone) ([2]; AZO 50 mg ai/l): 30%
inh % (AZO alone) ([2]; AZO 100 mg ai/l): 30%
inh % (AZO alone) ([3]; rate (AZO) 0.05 mg ai/l): 10%
inh % (AZO alone) ([3]; rate (AZO) 0.2 mg ai/l): 0%
inh % (AZO alone) ([3]; rate (AZO) 0.8 mg ai/l): 10%
inh % (AZO alone) ([3]; rate (AZO) 1.6 mg ai/l): 10%
inh % (AZO alone) ([3]; rate (AZO) 3.12 mg ai/l): 10%
inh % (AZO alone) ([3]; rate (AZO) 12.5 mg ai/l): 10%
inh % (AZO alone) ([3]; rate (AZO) 50 mg ai/l): 10%
inh % (AZO alone) ([3]; rate (AZO) 100 mg ai/l): 10%
inh % (AZO alone) [4, 9]: 0%
inh % (AZO alone) [4, 10]: 10%
inh % (AZO alone) [4, 11]: 10%
inh % (AZO alone) ([4]; test 006-2005, rate (AZO) 1.6 mg ai/l): 10%
inh % (AZO alone) ([4]; test 006-2005, rate (AZO) 3.12 mg ai/l): 10%
inh % (AZO alone) ([4]; test 006-2005, rate (AZO) 12.5 mg ai/l): 10%
inh % (AZO alone) ([4]; test 015-2005, rate (AZO) 12.5 mg ai/l): 0%
inh % (AZO alone) ([4]; test 015-2005, rate (AZO) 25 mg ai/l): 0%
inh % (AZO alone) ([4]; test 015-2005, rate (AZO) 50 mg ai/l): 0%
inh % (AZO alone) ([4]; test 015-2005, rate (AZO) 100 mg ai/l): 0%
inh % (AZO alone) [5, 9]: 10%
inh % (AZO alone) [5, 10]: 10%
inh % (AZO alone) [5, 11]: 10%
inh % (AZO alone) ([5]; test 006-2005, rate (AZO) 100 mg ai/l): 30%
inh % (AZO alone) ([5]; test 015-2005, rate (AZO) 0.4 mg ai/l): 10%
inh % (AZO alone) ([5]; test 015-2005, rate (AZO) 0.8 mg ai/l): 10%
inh % (AZO alone) ([5]; test 015-2005, rate (AZO) 1.6 mg ai/l): 10%
inh % (AZO alone) ([5]; test 015-2005, rate (AZO) 3.1 mg ai/l): 10%
inh % (AZO alone) ([5]; test 015-2005, rate (AZO) 6.25 mg ai/l): 10%
inh % (AZO alone) [6]: 10%
inh % (AZO alone) [7]: 10%
inh % (AZO alone) ([8]; rate (AZO) 0.8 mg ai/l): 30%
inh % (AZO alone) ([8]; rate (AZO) 1.6 mg ai/l): 30%
